We go through nine molecules from PubChem BioAssay (NCI).

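Values below derive from 48-hour exposures of cells grown in 96-well plates, with endpoints linearly interpolated between the two concentrations bracketing the appropriate inhibition level. At the GI50, growth is halved. At the TGI there is no net growth.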

Test systems include MOLT-4 leukemia; SF-539 CNS; UO-31 renal; HS 578T breast; RPMI-8226 leukemia; K-562 leukemia; HOP-92 NSCLC; OVCAR-5 ovarian; DU-145 prostate; HCT-116 colon.
Holding throughout (assay): NCI anticancer screen, dose series, 48 h

In the case of `C=C1c2c(C)nn(-c3ccc(C#CCOC4OC(CO)C(O)C(O)C4O)cc3)c2N(C)C23C[C@H]1C1(C)c4c(C)nn(-c5ccc(C#CCOC6OC(CO)C(O)C(O)C6O)cc5)c4N(C)C(C)(C[C@H]12)C3` (some centres not stated), the GI50 in the assay with MOLT-4 leukemia is 1.28 µM; with SF-539 CNS it was 1.78 µM; with UO-31 renal it was 2.83 µM; with HS 578T breast, 0.472 µM; with RPMI-8226 leukemia, 0.29 µM; with K-562 leukemia it was 1.89 µM. Also, the figures for the GI50 in the assay with HOP-92 NSCLC, in the assay on OVCAR-5 ovarian and with DU-145 prostate were 0.437 µM, 1.78 µM and 1.97 µM, respectively. The TGI amounted to 3.88 µM in the assay with MOLT-4 leukemia; 3.33 µM in the assay with SF-539 CNS; 10.1 µM in the assay on UO-31 renal; 9.85 µM in the assay with HS 578T breast; 1.72 µM in the assay with RPMI-8226 leukemia; 6.75 µM in the assay on K-562 leukemia. The TGI is 2.52 µM in the assay on HOP-92 NSCLC, 3.54 µM with OVCAR-5 ovarian and 5.16 µM with DU-145 prostate.

`CCN(CC)CCNC(Cc1ccccc1)c1ccc(OCc2ccccc2)cc1` (configuration not stated): the GI50 in the assay with MOLT-4 leukemia was 3.43 µM; in the assay with SF-539 CNS, 5.26 µM; with UO-31 renal, 2.53 µM; in the assay on HS 578T breast it was 4.32 µM; with RPMI-8226 leukemia, 2.4 µM; with K-562 leukemia it was 2.37 µM. For the same molecule, the GI50 was 7.02 µM in the assay on OVCAR-5 ovarian, 8.54 µM with DU-145 prostate and 4.25 µM in the assay with HCT-116 colon. Besides, the TGI in the assay on MOLT-4 leukemia was 13.2 µM; with SF-539 CNS it was 18.6 µM; with UO-31 renal, 14.7 µM; with HS 578T breast, 23.8 µM; with RPMI-8226 leukemia, 6.84 µM; in the assay on K-562 leukemia, 7.16 µM. Further, the TGI with OVCAR-5 ovarian stood at 22.4 µM; in the assay with DU-145 prostate, 21.1 µM; in the assay with HCT-116 colon, 25.5 µM.

`COc1ccc2c(c1)C(=O)CCc1cc(OC)c(OC)c(OC)c1-2`: the GI50 in the assay on MOLT-4 leukemia, with UO-31 renal, with RPMI-8226 leukemia, in the assay with K-562 leukemia, with DU-145 prostate and with HCT-116 colon was below 0.01 µM in each case. The TGI with MOLT-4 leukemia is 35.4 µM; in the assay with SF-539 CNS, 87.1 µM; in the assay with UO-31 renal it was above 100 µM; with HS 578T breast it was 0.0576 µM; in the assay with RPMI-8226 leukemia, above 100 µM; with K-562 leukemia, above 100 µM. This molecule returned a TGI with HCT-116 colon above 100 µM.

`Nc1ncc(-c2cnn(C3CCNCC3)c2)cc1-c1nc2cc(Cl)ccc2o1`: the GI50 in the assay with SF-539 CNS is 1.55 µM; in the assay with UO-31 renal it was 0.484 µM; in the assay with HS 578T breast, 0.385 µM; with K-562 leukemia it was 0.218 µM; in the assay on HOP-92 NSCLC it was 0.808 µM; in the assay on OVCAR-5 ovarian, 1.77 µM. Besides, the GI50 is 1.63 µM in the assay on DU-145 prostate and 0.851 µM in the assay on HCT-116 colon. The TGI is 2.91 µM in the assay on SF-539 CNS; 1.02 µM in the assay on UO-31 renal; 1.77 µM in the assay with HS 578T breast; 0.444 µM with K-562 leukemia; 2.14 µM in the assay on HOP-92 NSCLC; 3.22 µM in the assay with OVCAR-5 ovarian. For the same molecule, the TGI amounted to 3.08 µM in the assay on DU-145 prostate and 2.13 µM with HCT-116 colon.

Consider `C=C(C)C1CC2(C)C(C)CC(O)CC2C(OC(=O)C=C(C)C)C1O` (configuration not stated), for which the TGI was 83.1 µM in the assay on MOLT-4 leukemia; above 100 µM with SF-539 CNS; 74.4 µM with UO-31 renal; above 100 µM in the assay on HS 578T breast; above 100 µM with K-562 leukemia; above 100 µM with HOP-92 NSCLC. Moreover, the TGI with OVCAR-5 ovarian, in the assay with DU-145 prostate and with HCT-116 colon was above 100 µM each time.

Consider `O=C(O)CCCc1ccc2ccc3ccccc3c2c1`, for which the TGI with MOLT-4 leukemia, with UO-31 renal, in the assay with HS 578T breast, in the assay on RPMI-8226 leukemia, in the assay on K-562 leukemia and in the assay on HOP-92 NSCLC was above 100 µM each time. The TGI in the assay with OVCAR-5 ovarian, with DU-145 prostate and in the assay with HCT-116 colon was above 100 µM each time.

Regarding `COc1ccc2c(c1)C(=O)/C(=C/c1cccc(OCC(=O)c3ccccc3)c1)O2`, the GI50 was 1.44 µM in the assay on MOLT-4 leukemia; 3.79 µM with SF-539 CNS; 1.59 µM in the assay with UO-31 renal; 13.8 µM in the assay with HS 578T breast; 0.722 µM in the assay on K-562 leukemia; 3.86 µM in the assay with HOP-92 NSCLC. The GI50 with OVCAR-5 ovarian was 4.31 µM; with DU-145 prostate, 3.9 µM; in the assay on HCT-116 colon, 1.53 µM. In addition, the TGI in the assay on MOLT-4 leukemia worked out at 3.52 µM; in the assay on SF-539 CNS, 13.8 µM; with UO-31 renal it was 3.09 µM; with HS 578T breast it was 48.1 µM; in the assay on K-562 leukemia, 2.13 µM; with HOP-92 NSCLC it was 16.1 µM. Moreover, the TGI with OVCAR-5 ovarian is 14.5 µM; with DU-145 prostate, 13.7 µM; in the assay with HCT-116 colon it was 2.96 µM.

For `Cc1ccc(C2=C(c3ccc(C)cc3)C3(c4ccc(C)cc4)C4C(=O)OC(=O)C4C2(c2ccc(C)cc2)S3=O)cc1` (configuration not stated), the GI50 was 6.3 µM with SF-539 CNS; 34.3 µM with UO-31 renal; 21.3 µM in the assay with HS 578T breast; 21.2 µM with RPMI-8226 leukemia; 27.7 µM in the assay on K-562 leukemia; 25.3 µM in the assay on HOP-92 NSCLC. Further, the results for the GI50 in the assay with OVCAR-5 ovarian, in the assay on DU-145 prostate and in the assay with HCT-116 colon were 96.4 µM, 47.6 µM and 23.7 µM, respectively. Also, the TGI in the assay with SF-539 CNS was 31.9 µM; in the assay on UO-31 renal it was above 100 µM; in the assay with HS 578T breast, above 100 µM; in the assay on RPMI-8226 leukemia, 89.5 µM; in the assay with K-562 leukemia it was above 100 µM; in the assay with HOP-92 NSCLC it was 89.8 µM. In addition, the TGI was above 100 µM with OVCAR-5 ovarian, above 100 µM with DU-145 prostate and 92.5 µM with HCT-116 colon.

Consider `Cc1cc(Cl)ccc1OCC(=O)Nc1nc2c(Cl)cccc2s1`, for which the GI50 was 6.94 µM with MOLT-4 leukemia; 17.4 µM with SF-539 CNS; above 100 µM with UO-31 renal; above 100 µM in the assay with HS 578T breast; 18.7 µM in the assay with RPMI-8226 leukemia; 7.25 µM in the assay on K-562 leukemia. For the same molecule, the GI50 in the assay on HOP-92 NSCLC is 21 µM; with OVCAR-5 ovarian it was 50.4 µM; in the assay on DU-145 prostate, 26.4 µM. The TGI in the assay on MOLT-4 leukemia was 60.3 µM; with SF-539 CNS it was above 100 µM; with UO-31 renal, above 100 µM; in the assay with HS 578T breast, above 100 µM; with RPMI-8226 leukemia, above 100 µM; in the assay on K-562 leukemia it was above 100 µM. Further, the TGI in the assay with HOP-92 NSCLC was 97.5 µM; in the assay on OVCAR-5 ovarian, above 100 µM; in the assay with DU-145 prostate it was above 100 µM.
